Experimental data as given in patent publication US20080200454A1, “CARBON-LINKED TETRAHYDRO-PYRAZOLO-PYRIDINE MODULATORS OF CATHEPSIN S” (priority 2007, published 2008).
Like-named read-outs stand apart in the source and are kept apart here.

Molecular target: Recombinant human cathepsin S (CatS) (Homo sapiens, UniProt P25774)
Test: Recombinant human cathepsin S (CatS) inhibition assay, fluorogenic substrate Z-Valine-Valine-Arginine-AMC;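 also: Baculovirus-expressed CatS in pH 5.0 sodium acetate buffer with DTT and NaCl, fluorescence read each minute over 20 min, inhibition derived from rate slope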
Protocol: Recombinant human cathepsin S (CatS) was expressed in the baculovirus system and purified in one step with a thiopropyl-sepharose column. 10-L yielded ˜700 mg of CatS and N-terminal sequencing confirmed identity. The assay is run in 150 mM sodium acetate pH 5.0 containing 1.5 mM DTT and 150 mM NaCl. […] Using 2 ng/well of CatS, the production of product is linear and yields-7-fold signal after 20 min with only 20% loss of substrate. Measurements are taken every min for 20 min. The rate is calculated from the slope of the increase in fluorescence and the percent inhibition is calculated from this.

Sequence of Recombinant human cathepsin S (CatS) (P25774 115-331): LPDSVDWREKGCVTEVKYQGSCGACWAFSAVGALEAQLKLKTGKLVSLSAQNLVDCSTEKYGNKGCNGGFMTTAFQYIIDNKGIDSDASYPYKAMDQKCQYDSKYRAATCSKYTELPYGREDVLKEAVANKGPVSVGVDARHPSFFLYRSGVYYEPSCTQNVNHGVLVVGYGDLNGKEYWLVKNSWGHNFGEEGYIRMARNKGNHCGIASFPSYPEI

Row | SMILES | IC50 [nM] | IC50 (CatS IC50) [nM]
1 | NC(=O)N1CCc2c(c(-c3ccc(Cl)c(C#Cc4ccc(Cl)c(C(=O)NCC5CCCNC5)c4)c3)nn2CCCN2CCSCC2)C1 (stereo not drawn) [Example 583, 3-[4-Chloro-3-({4-chloro-3-[(piperidin-3-ylmethyl)carbamoyl]phenyl}ethynyl)phenyl]-1-(3-thiomorpholin-4-ylpropyl)-1,4,6,7-tetrahydro-5H-pyrazolo[4,3-c]pyridine-5-carboxamide] | 30 | –
2 | NC(=O)N1CCc2c(c(-c3ccc(Cl)c(C#Cc4ccc(Cl)c(C(=O)NCC5CNCCO5)c4)c3)nn2CCCN2CCSCC2)C1 (stereo not drawn) [Example 584, 3-[4-Chloro-3-({4-chloro-3-[(morpholin-2-ylmethyl)carbamoyl]phenyl}ethynyl)phenyl]-1-(3-thiomorpholin-4-ylpropyl)-1,4,6,7-tetrahydro-5H-pyrazolo[4,3-c]pyridine-5-carboxamide] | 40 | –
3 | NC(=O)N1CCc2c(c(-c3ccc(Cl)c(C#Cc4ccc(Cl)c(C(=O)NCCN5CCOCC5)c4)c3)nn2CCCN2CCSCC2)C1 [Example 585, 3-[4-Chloro-3-({4-chloro-3-[(2-morpholin-4-ylethyl)carbamoyl]phenyl}ethynyl)phenyl]-1-(3-thiomorpholin-4-ylpropyl)-1,4,6,7-tetrahydro-5H-pyrazolo[4,3-c]pyridine-5-carboxamide] | 40 | –
4 | C[C@H]1COCCN1CCCn1nc(-c2ccc(Cl)c(C#Cc3ccc(Cl)c(C(=O)NC[C@@H]4CCNC4)c3)c2)c2c1CCN(C(=O)C(N)=O)C2 [Example 586, 5-{[5-(5-[Amino(oxo)acetyl]-1-{3-[(3S)-3-methylmorpholin-4-yl]propyl}-4,5,6,7-tetrahydro-1H-pyrazolo[4,3-c]pyridin-3-yl)-2-chlorophenyl]ethynyl}-2-chloro-N-[(3R)-pyrrolidin-3-ylmethyl]benzamide] | – | 20
5 | C[C@H]1COCCN1CCCn1nc(-c2ccc(Cl)c(C#Cc3ccc(Cl)c(C(=O)NCC4CCCNC4)c3)c2)c2c1CCN(C(=O)C(N)=O)C2 (stereo partly drawn) [Example 587, 5-{[5-(5-[Amino(oxo)acetyl]-1-{3-[(3S)-3-methylmorpholin-4-yl]propyl}-4,5,6,7-tetrahydro-1H-pyrazolo[4,3-c]pyridin-3-yl)-2-chlorophenyl]ethynyl}-2-chloro-N-(piperidin-3-ylmethyl)benzamide] | 20 | –
6 | C[C@H]1COCCN1CCCn1nc(-c2ccc(Cl)c(C#Cc3ccc(Cl)c(CN4CCOCC4)c3)c2)c2c1CCN(C(=O)C(N)=O)C2 [Example 588, 2-[3-(4-Chloro-3-{[4-chloro-3-(morpholin-4-ylmethyl)phenyl]ethynyl}phenyl)-1-{3-[(3S)-3-methylmorpholin-4-yl]propyl}-1,4,6,7-tetrahydro-5H-pyrazolo[4,3-c]pyridin-5-yl]-2-oxoacetamide] | – | 40
7 | C[C@H]1COCCN1CCCn1nc(-c2ccc(Cl)c(C#Cc3ccc(Cl)c(CNC4CC4)c3)c2)c2c1CCN(C(=O)C(N)=O)C2 [Example 589, 2-(3-[4-Chloro-3-({4-chloro-3-[(cyclopropylamino)methyl]phenyl}ethynyl)phenyl]-1-{3-[(3S)-3-methylmorpholin-4-yl]propyl}-1,4,6,7-tetrahydro-5H-pyrazolo[4,3-c]pyridin-5-yl)-2-oxoacetamide] | – | 30
8 | NC(=O)N1CCc2c(c(-c3ccc(Cl)c(C#Cc4ccc(Cl)c(C(=O)NCCN5CCOCC5)c4)c3)nn2CCCN2CCCCC2)C1 [Example 590, 3-[4-Chloro-3-({4-chloro-3-[(2-morpholin-4-ylethyl)carbamoyl]phenyl}ethynyl)phenyl]-1-(3-piperidin-1-ylpropyl)-1,4,6,7-tetrahydro-5H-pyrazolo[4,3-c]pyridine-5-carboxamide] | – | 70
9 | NC(=O)C(=O)N1CCc2c(c(-c3ccc(Cl)c(C#Cc4ccc(Cl)c(C(=O)NCCN5CCOCC5)c4)c3)nn2CCCN2CCCCC2)C1 [Example 591, 5-[(5-{5-[Amino(oxo)acetyl]-1-(3-piperidin-1-ylpropyl)-4,5,6,7-tetrahydro-1H-pyrazolo[4,3-c]pyridin-3-yl}-2-chlorophenyl)ethynyl]-2-chloro-N-(2-morpholin-4-ylethyl)benzamide] | – | 30
10 | CCNCc1cc(C#Cc2cc(-c3nn(CCCN4CCCCC4)c4c3CN(C(=O)C(N)=O)CC4)ccc2Cl)ccc1Cl [Example 592, 2-{3-[4-Chloro-3-({4-chloro-3-[(ethylamino)methyl]phenyl}ethynyl)phenyl]-1-(3-piperidin-1-ylpropyl)-1,4,6,7-tetrahydro-5H-pyrazolo[4,3-c]pyridin-5-yl}-2-oxoacetamide] | 20 | –
11 | CS(=O)(=O)N1CCc2c(c(-c3ccc(Cl)c(C#Cc4ccc(Cl)c(C(=O)NCCN5CCOCC5)c4)c3)nn2CCCN2CCCCC2)C1 [Example 593, 2-Chloro-5-({2-chloro-5-[5-(methylsulfonyl)-1-(3-piperidin-1-ylpropyl)-4,5,6,7-tetrahydro-1H-pyrazolo[4,3-c]pyridin-3-yl]phenyl}ethynyl)-N-(2-morpholin-4-ylethyl)benzamide] | 60 | –
12 | CCNCc1cc(C#Cc2cc(-c3nn(CCCN4CCCCC4)c4c3CN(S(C)(=O)=O)CC4)ccc2Cl)ccc1Cl [Example 594, N-[2-Chloro-5-({2-chloro-5-[5-(methylsulfonyl)-1-(3-piperidin-1-ylpropyl)-4,5,6,7-tetrahydro-1H-pyrazolo[4,3-c]pyridin-3-yl]phenyl}ethynyl)benzyl]ethanamine] | 30 | –
13 | NC(=O)C(=O)N1CCc2c(c(-c3ccc(Cl)c(C#Cc4ccc(Cl)c(CNC5CCCC5)c4)c3)nn2CCCN2CCCCC2)C1 [Example 595, 2-{3-[4-Chloro-3-({4-chloro-3-[(cyclopentylamino)methyl]phenyl}ethynyl)phenyl]-1-(3-piperidin-1-ylpropyl)-1,4,6,7-tetrahydro-5H-pyrazolo[4,3-c]pyridin-5-yl}-2-oxoacetamide] | – | 10
14 | NC(=O)N1CCc2c(c(-c3ccc(Cl)c(C#Cc4ccc(Cl)c(CNC5CC5)c4)c3)nn2CCCN2CCCCC2)C1 [Example 596, 3-[4-Chloro-3-({4-chloro-3-[(cyclopropylamino)methyl]phenyl}ethynyl)phenyl]-1-(3-piperidin-1-ylpropyl)-1,4,6,7-tetrahydro-5H-pyrazolo[4,3-c]pyridine-5-carboxamide] | – | 30
15 | CS(=O)(=O)N1CCc2c(c(-c3ccc(Cl)c(C#Cc4ccc(Cl)c(CNC5CCCC5)c4)c3)nn2CCCN2CCCCC2)C1 [Example 597, N-[2-Chloro-5-({2-chloro-5-[5-(methylsulfonyl)-1-(3-piperidin-1-ylpropyl)-4,5,6,7-tetrahydro-1H-pyrazolo[4,3-c]pyridin-3-yl]phenyl}ethynyl)benzyl]cyclopentanamine] | – | 40
16 | C[C@H]1COCCN1CCCn1nc(-c2ccc(Cl)c(C#Cc3ccc(Cl)c(C(=O)NCC4CNC4)c3)c2)c2c1CCN(C(=O)C(N)=O)C2 [Example 598, 5-{[5-(5-[Amino(oxo)acetyl]-1-{3-[(3S)-3-methylmorpholin-4-yl]propyl}-4,5,6,7-tetrahydro-1H-pyrazolo[4,3-c]pyridin-3-yl)-2-chlorophenyl]ethynyl}-N-(azetidin-3-ylmethyl)-2-chlorobenzamide] | – | 30
17 | NC(=O)N1CCc2c(c(-c3ccc(Cl)c(C#Cc4ccc(Cl)c(CNC5CCCC5)c4)c3)nn2CCCN2CCSCC2)C1 [Example 599, 3-[4-Chloro-3-({4-chloro-3-[(cyclopentylamino)methyl]phenyl}ethynyl)phenyl]-1-(3-thiomorpholin-4-ylpropyl)-1,4,6,7-tetrahydro-5H-pyrazolo[4,3-c]pyridine-5-carboxamide] | 30 | –
18 | NC(=O)C(=O)N1CCc2c(c(-c3ccc(Cl)c(C#Cc4ccc(Cl)c(CNC5CC5)c4)c3)nn2CCCN2CCCCC2)C1 [Example 600, 2-{3-[4-Chloro-3-({4-chloro-3-[(cyclopropylamino)methyl]phenyl}ethynyl)phenyl]-1-(3-piperidin-1-ylpropyl)-1,4,6,7-tetrahydro-5H-pyrazolo[4,3-c]pyridin-5-yl}-2-oxoacetamide] | 30 | –
19 | NC(=O)C(=O)N1CCc2c(c(-c3ccc(Cl)c(C#Cc4ccc(Cl)c(CN5CCOCC5)c4)c3)nn2CCCN2CCCCC2)C1 [Example 601, 2-[3-(4-Chloro-3-{[4-chloro-3-(morpholin-4-ylmethyl)phenyl]ethynyl}phenyl)-1-(3-piperidin-1-ylpropyl)-1,4,6,7-tetrahydro-5H-pyrazolo[4,3-c]pyridin-5-yl]-2-oxoacetamide] | 30 | –
20 | NC(=O)N1CCc2c(c(-c3ccc(Cl)c(C#Cc4ccc(Cl)c(CN5CCOCC5)c4)c3)nn2CCCN2CCCCC2)C1 [Example 602, 3-(4-Chloro-3-{[4-chloro-3-(morpholin-4-ylmethyl)phenyl]ethynyl}phenyl)-1-(3-piperidin-1-ylpropyl)-1,4,6,7-tetrahydro-5H-pyrazolo[4,3-c]pyridine-5-carboxamide] | 40 | –
21 | CS(=O)(=O)N1CCc2c(c(-c3ccc(Cl)c(C#Cc4ccc(Cl)c(CNC5CC5)c4)c3)nn2CCCN2CCCCC2)C1 [Example 603, N-[2-Chloro-5-({2-chloro-5-[5-(methylsulfonyl)-1-(3-piperidin-1-ylpropyl)-4,5,6,7-tetrahydro-1H-pyrazolo[4,3-c]pyridin-3-yl]phenyl}ethynyl)benzyl]cyclopropanamine] | – | 50
22 | CS(=O)(=O)N1CCc2c(c(-c3ccc(Cl)c(C#Cc4ccc(Cl)c(CN5CCOCC5)c4)c3)nn2CCCN2CCCCC2)C1 [Example 604, 3-(4-Chloro-3-{[4-chloro-3-(morpholin-4-ylmethyl)phenyl]ethynyl}phenyl)-5-(methylsulfonyl)-1-(3-piperidin-1-ylpropyl)-4,5,6,7-tetrahydro-1H-pyrazolo[4,3-c]pyridine] | – | 80
23 | NC(=O)N1CCc2c(c(-c3ccc(Cl)c(C#Cc4ccc(Cl)c(CNC5CC5)c4)c3)nn2CCCN2CCSCC2)C1 [Example 605, 3-[4-Chloro-3-({4-chloro-3-[(cyclopropylamino)methyl]phenyl}ethynyl)phenyl]-1-(3-thiomorpholin-4-ylpropyl)-1,4,6,7-tetrahydro-5H-pyrazolo[4,3-c]pyridine-5-carboxamide] | – | 40
24 | NC(=O)N1CCc2c(c(-c3ccc(Cl)c(C#Cc4ccc(Cl)c(CN5CCOCC5)c4)c3)nn2CCCN2CCSCC2)C1 [Example 606, 3-(4-Chloro-3-{[4-chloro-3-(morpholin-4-ylmethyl)phenyl]ethynyl}phenyl)-1-(3-thiomorpholin-4-ylpropyl)-1,4,6,7-tetrahydro-5H-pyrazolo[4,3-c]pyridine-5-carboxamide] | – | 40
